25 molecules from US20240124408A1 (Sanofi, priority 2020, published 2024) can be followed below.

The target in one assay is T1, human TRPM8 (Homo sapiens, UniProt Q7Z2W7).
T1 construct: expressed in transfected cells; host or cells: CHO (p658 mammalian expression vector)
As to the kind of experiment: In vitro human TRPM8 fluorescence calcium flux assay (recombinant CHO cells, Fluo4-AM, FDSS6000). The format is cell-based. The settings on record: recombinant CHO cells expressing human TRPM8; menthol-related EC50, normalized to 100 μM menthol. The procedure: (§1) In Vitro Pig and Human TRPM8 Fluorescence Calcium Flux Assays
(§2) For functional expression of TRPM8, the full-length cDNA encoding human (NM_024080) and pig (XM_001927892.1) TRPM8 sequences were subcloned into p658 and pcDNA5/FRT/TO mammalian expression vectors, respectively. Engineered recombinant CHO cell lines expressing human or pig TRPM8 were generated. Culture media was Ham-F12 with 10% FCS for both lines, and for the pig cell line only 400 μg/ml hygromycin B and 30 μg/mL blasticidin were added as selection antibiotics (all reagents were obtained from Invitrogen, Fisher Scientific). Cells were grown in culture flasks up to 80% confluence where they were harvested using accutase (Sigma, MO, USA) to detach the cells by enzymatic dissociation and either seeded directly into assay plates or cryopreserved for future use.
(§3) For calcium flux assays, cells were plated into clear base poly-D-lysine coated 384-well plates (BD Biosciences, NJ USA) at a density of 15,000 cells per well in appropriate culture medium and grown overnight. The following day, all medium was removed then the cells were incubated with 2 μM of Fluo4-AM Dye (Molecular Probes) prepared in complete HBSS assay buffer containing 20 mM HEPES, 0.1% BSA, and 2.5 mM probenecid at room temperature for one hour. Following incubation, plates were inserted into a FDSS6000 instrument (Hamamatsu, Photonics, Japan) instrument, where cells were challenged with compounds of the formula (at varying concentrations) and intracellular calcium was measured kinetically for 3 min after addition.
(§4) This protocol allowed the determination of an EC50 value, from the sixteen-point dose response data, for each compound of the formula tested. Maximal fluorescence intensity achieved upon addition of 100 μM menthol (stock solution prepared in ethanol from solid, Sigma-Aldrich) was exported from the FDSS and further analyzed using IDBS XLFit 5. Data were normalized to the average 100 μM menthol response (maximum control wells) included in each plate. The dose response curves from the average of wells for each data point were analyzed by using nonlinear regression of sigmoidal dose response (formula 205). Finally, the (menthol-related) EC50 values (Half maximal effective concentration) were calculated with the best-fit dose curve determined by IDBS XLFit 5 software.
Background: A change in cytosolic calcium serves as a functional read-out for many receptors and channels.

For another assay, the target named is T2, pig TRPM8 (Sus scrofa, UniProt F1SM15).
T2 construct: expressed in transfected cells; host or cells: CHO (pcDNA5/FRT/TO vector; hygromycin B and blasticidin selection)
The assay can be described thus: In vitro pig TRPM8 fluorescence calcium flux assay (recombinant CHO cells, Fluo4-AM, FDSS6000). The format is cell-based. The note with it: recombinant CHO cells expressing pig TRPM8; menthol-related EC50, normalized to 100 μM menthol. As to the method:
as §1, §2, §3, §4

T1 sequence (Q7Z2W7 whole entry): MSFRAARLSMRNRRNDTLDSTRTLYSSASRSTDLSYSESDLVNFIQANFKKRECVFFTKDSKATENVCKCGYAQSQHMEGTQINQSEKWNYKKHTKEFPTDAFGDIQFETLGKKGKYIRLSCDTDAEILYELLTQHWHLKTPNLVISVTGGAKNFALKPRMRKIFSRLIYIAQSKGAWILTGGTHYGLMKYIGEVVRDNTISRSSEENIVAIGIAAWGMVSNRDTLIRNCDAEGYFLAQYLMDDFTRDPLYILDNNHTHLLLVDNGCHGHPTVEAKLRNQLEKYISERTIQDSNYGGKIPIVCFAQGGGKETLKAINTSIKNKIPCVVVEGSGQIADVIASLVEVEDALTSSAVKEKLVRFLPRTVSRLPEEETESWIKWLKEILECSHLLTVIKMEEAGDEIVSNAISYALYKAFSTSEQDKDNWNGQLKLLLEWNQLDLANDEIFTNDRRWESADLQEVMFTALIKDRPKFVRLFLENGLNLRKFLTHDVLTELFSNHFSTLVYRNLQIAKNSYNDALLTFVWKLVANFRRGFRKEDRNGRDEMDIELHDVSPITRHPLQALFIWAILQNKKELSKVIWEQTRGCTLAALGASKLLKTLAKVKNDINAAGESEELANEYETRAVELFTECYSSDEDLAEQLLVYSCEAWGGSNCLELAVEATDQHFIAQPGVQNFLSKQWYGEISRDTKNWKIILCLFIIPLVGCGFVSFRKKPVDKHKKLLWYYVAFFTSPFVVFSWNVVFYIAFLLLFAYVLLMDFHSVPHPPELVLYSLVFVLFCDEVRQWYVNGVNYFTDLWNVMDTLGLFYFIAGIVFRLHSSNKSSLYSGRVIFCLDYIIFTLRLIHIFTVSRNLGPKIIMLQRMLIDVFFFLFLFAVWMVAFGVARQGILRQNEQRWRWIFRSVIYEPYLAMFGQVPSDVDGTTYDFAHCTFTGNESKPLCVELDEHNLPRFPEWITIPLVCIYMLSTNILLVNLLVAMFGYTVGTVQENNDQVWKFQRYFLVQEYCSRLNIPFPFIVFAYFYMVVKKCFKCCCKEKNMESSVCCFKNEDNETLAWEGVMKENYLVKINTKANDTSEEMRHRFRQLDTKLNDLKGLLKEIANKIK
T2 sequence (F1SM15 1-1104): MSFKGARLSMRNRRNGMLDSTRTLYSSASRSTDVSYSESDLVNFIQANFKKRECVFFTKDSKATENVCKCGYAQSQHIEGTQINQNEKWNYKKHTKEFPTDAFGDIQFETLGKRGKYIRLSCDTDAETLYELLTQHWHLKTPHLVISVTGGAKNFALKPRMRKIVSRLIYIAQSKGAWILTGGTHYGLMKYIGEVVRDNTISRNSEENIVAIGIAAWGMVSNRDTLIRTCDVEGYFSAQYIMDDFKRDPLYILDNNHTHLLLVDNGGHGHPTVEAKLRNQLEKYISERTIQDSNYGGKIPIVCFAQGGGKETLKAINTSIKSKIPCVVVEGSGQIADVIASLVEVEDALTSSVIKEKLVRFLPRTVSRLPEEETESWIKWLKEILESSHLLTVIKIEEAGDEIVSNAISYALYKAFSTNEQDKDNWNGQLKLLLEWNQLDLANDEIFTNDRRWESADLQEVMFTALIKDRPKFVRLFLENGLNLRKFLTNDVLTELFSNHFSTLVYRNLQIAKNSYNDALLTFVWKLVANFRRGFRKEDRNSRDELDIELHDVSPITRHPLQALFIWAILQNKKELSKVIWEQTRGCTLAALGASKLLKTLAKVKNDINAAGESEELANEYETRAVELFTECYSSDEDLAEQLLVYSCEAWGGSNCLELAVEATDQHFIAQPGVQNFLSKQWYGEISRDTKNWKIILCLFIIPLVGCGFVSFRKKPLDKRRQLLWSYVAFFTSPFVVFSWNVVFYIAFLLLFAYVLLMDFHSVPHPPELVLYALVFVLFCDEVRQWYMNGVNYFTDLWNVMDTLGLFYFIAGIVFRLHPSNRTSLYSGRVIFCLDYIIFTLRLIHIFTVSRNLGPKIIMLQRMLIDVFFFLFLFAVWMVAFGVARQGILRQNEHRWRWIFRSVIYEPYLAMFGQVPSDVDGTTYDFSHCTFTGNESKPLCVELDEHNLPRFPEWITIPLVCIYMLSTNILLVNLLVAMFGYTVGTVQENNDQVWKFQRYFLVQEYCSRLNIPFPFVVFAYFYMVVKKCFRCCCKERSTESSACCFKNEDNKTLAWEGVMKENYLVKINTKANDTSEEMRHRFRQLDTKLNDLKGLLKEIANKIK

With `CC(C)[C@@H]1CC[C@@H](C)C[C@@]1(O)C(=O)N[C@@H]1CCc2ccc(O)cc2C1` [Example 171, (1S,2S,5R)-1-hydroxy-N-[(2R)-7-hydroxytetralin-2-yl]-2-isopropyl-5-methyl-cyclohexanecarboxamide], the EC50 (in general, the midpoint of the concentration-response curve) on human TRPM8 worked out at 3.2 nM; on pig TRPM8, 6.1 nM.
Taken in the same sequence, the figures for `CC(C)[C@@H]1CC[C@@H](C)C[C@@]1(O)C(=O)NCCc1cnccn1` [Example 131, (1S,2S,5R)-1-hydroxy-2-isopropyl-5-methyl-N-(2-pyrazin-2-ylethyl)cyclohexanecarboxamide] were 603 nM and 267 nM.
Taken in the same sequence, the figures for `Cc1oc(=O)oc1COC(=O)c1cccc(CCNC(=O)[C@]2(O)C[C@H](C)CC[C@H]2C(C)C)c1` [Example 29, (5-methyl-2-oxo-1,3-dioxol-4-yl)methyl 3-(2-((1S,2S,5R)-1-hydroxy-2-isopropyl-5-methylcyclohexane-1-carboxamido)ethy) benzoate] were 211 nM and 221 nM.
Taken in the same sequence, the figures for `COc1ccc2c(c1)OCC2CNC(=O)[C@]1(O)C[C@H](C)CC[C@H]1C(C)C` (stereo partly drawn) [Example 154, (1S,2S,5R)-1-hydroxy-2-isopropyl-N-[(6-methoxy-2,3-dihydrobenzofuran-3-yl)methyl]-5-methyl-cyclohexanecarboxamide] were 85 nM and 46 nM.
With `COCCOCCOCCOc1cccc(CCNC(=O)[C@]2(O)C[C@H](C)CC[C@H]2C(C)C)c1` [Example 185, (1S,2S,5R)-1-hydroxy-2-isopropyl-N-[2-[3-[2-[2-(2-methoxyethoxy)ethoxy]ethoxy]phenyl]ethyl]-5-methyl-cyclohexanecarboxamide], the EC50 at human TRPM8 was found to be 110 nM; on pig TRPM8 it was 68.1 nM.
For `Cc1cccnc1CCNC(=O)[C@]1(O)C[C@H](C)CC[C@H]1C(C)C` [Example 127, (1S,2S,5R)-1-hydroxy-2-isopropyl-5-methyl-N-[2-(3-methyl-2-pyridyl)ethyl]cyclohexanecarboxamide] the same measures were 359 nM and 152 nM.
For `CC(C)[C@@H]1CC[C@@H](C)C[C@@]1(O)C(=O)NCCCc1ccc(O)cc1` [Example 167, (1S,2S,5R)-1-hydroxy-N-[3-(4-hydroxyphenyl)propyl]-2-isopropyl-5-methyl-cyclohexanecarboxamide] the same measures were 58.4 nM and 91.8 nM.
Taken in the same sequence, the figures for `CC(C)[C@@H]1CC[C@@H](C)C[C@@]1(O)C(=O)NCC1OC(=O)c2ccccc21` (mixture of isomers) [Example 18, (1S,2S,5R)-1-hydroxy-2-isopropyl-5-methyl-N-(((1RS)-3-oxo-1,3-dihydroisobenzofuran-1-yl)methyl) cyclohexane-1-carboxamide] were 757 nM and 242 nM.
With `CC(C)[C@@H]1CC[C@@H](C)C[C@@]1(O)C(=O)NCCc1cccc(C(=O)OC[C@H](C)O)c1` [Example 105, (S)-2-hydroxypropyl 3-(2-((1S,2S,5R)-1-hydroxy-2-isopropyl-5-methylcyclohexane-1-carboxamido)ethyl)benzoate], the EC50 was determined as 30.8 nM on human TRPM8 and 28.4 nM at pig TRPM8.
Taken in the same sequence, the figures for `CC(C)[C@@H]1CC[C@@H](C)C[C@@]1(O)C(=O)NCc1c[nH]c2ccccc12` [Example 151] were 188 nM and 126 nM.
For `COc1ccc2c(c1)CCC2CNC(=O)[C@]1(O)C[C@H](C)CC[C@H]1C(C)C` (stereo partly drawn) [Example 152, (1S,2S,5R)-1-hydroxy-2-isopropyl-N-[(5-methoxyindan-1-yl)methyl]-5-methyl-cyclohexanecarboxamide] the same measures were 310 nM and 47 nM.
For `CC(C)[C@@H]1CC[C@@H](C)C[C@@]1(O)C(=O)NCC(=O)c1ccc(Cl)cc1Cl` [Example 137, (1S,2S,5R)-N-[2-(2,4-dichlorophenyl)-2-oxo-ethyl]-1-hydroxy-2-isopropyl-5-methyl-cyclohexanecarboxamide] the same measures were 125 nM and 41.6 nM.
Turning to `CC(C)[C@@H]1CC[C@@H](C)C[C@@]1(O)C(=O)NCC(=O)c1ccc(O)c(O)c1` [Example 100, (1S,2S,5R)—N-(2-(3,4-dihydroxyphenyl)-2-oxoethyl)-1-hydroxy-2-isopropyl-5-methylcyclohexane-1-carboxamide], the EC50 amounted to 2.2 nM at human TRPM8 and 2.9 nM on pig TRPM8.
For `CC(C)[C@@H]1CC[C@@H](C)C[C@@]1(O)C(=O)NC[C@H](O)c1ccccc1` [Example 178, (1S,2S,5R)-1-hydroxy-N-((2R)-2-hydroxy-2-phenylethyl)-2-isopropyl-5-methylcyclohexane-1-carboxamide] the same measures were 1260 nM and 358 nM.
Taken in the same sequence, the figures for `COc1cc(CCNC(=O)[C@]2(O)C[C@H](C)CC[C@H]2C(C)C)cc(OC)c1O` [Example 130, (1S,2S,5R)-1-hydroxy-N-[2-(4-hydroxy-3,5-dimethoxy-phenyl)ethyl]-2-isopropyl-5-methyl-cyclohexanecarboxamide] were 433 nM and 185 nM.
For `CC(C)[C@@H]1CC[C@@H](C)C[C@@]1(O)C(=O)NCC1(c2cccc(COC3CCCCO3)c2)COC1` (stereo partly drawn) [Example 101, (1S,2S,5R)-1-hydroxy-2-isopropyl-5-methyl-N-((3-(3-(((tetrahydro-2H-pyran-2-yl)oxy)methyl)phenyl)oxetan-3-yl)methyl)cyclohexane-1-carboxamide], the EC50 is 376 nM on human TRPM8 and 174 nM on pig TRPM8.
For `Cc1cccc(C(O)CNC(=O)[C@]2(O)C[C@H](C)CC[C@H]2C(C)C)c1` (stereo partly drawn) [Example 12, (1S,2S,5R)-1-hydroxy-N-(2-hydroxy-2-(m-tolyl)ethyl)-2-isopropyl-5-methylcyclohexane-1-carboxamide] the same measures were 3 nM and 2 nM.
Taken in the same sequence, the figures for `CC(C)[C@@H]1CC[C@@H](C)C[C@@]1(O)C(=O)NCCc1cccc(S(N)(=O)=O)c1` [Example 133, (1S,2S,5R)-1-hydroxy-2-isopropyl-5-methyl-N-[2-(3-sulfamoylphenyl)ethyl]cyclohexanecarboxamide] were 140 nM and 72.2 nM.
For `CC(C)[C@@H]1CC[C@@H](C)C[C@@]1(O)C(=O)NCC1OCCc2ccccc21` (single isomer, unassigned) [Example 97] the same measures were 11.1 nM and 29.2 nM.
In the case of `CC(C)[C@@H]1CC[C@@H](C)C[C@@]1(O)C(=O)NC[C@@H](NC(=O)[C@@H](C)N)c1ccccc1` [Example 62, (1S,2S,5R)—N—((S)-2-((R)-2-aminopropanamido)-2-phenylethyl)-1-hydroxy-2-isopropyl-5-methylcyclohexane-1-carboxamide], the results for the half-maximal effective concentration (EC50) on human TRPM8 and at pig TRPM8 were 1.6 nM and 2.3 nM, respectively.
For `CC(C)[C@@H]1CC[C@@H](C)C[C@@]1(O)C(=O)NCC(=O)OCc1ccccc1` [Example 132, benzyl 2-[[(1S,2S,5R)-1-hydroxy-2-isopropyl-5-methyl-cyclohexanecarbonyl]amino]acetate] the same measures were 303 nM and 79.1 nM.
For `CC(C)[C@@H]1CC[C@@H](C)C[C@@]1(O)C(=O)NCC(NC(=O)[C@H](C)N)c1ccccc1` (single isomer, unassigned) [Example 181] the same measures were 22.5 nM and 61.4 nM.
For `CC(C)[C@@H]1CC[C@@H](C)C[C@@]1(O)C(=O)NCC1(O)CCc2c(Cl)cccc21` (stereo partly drawn) [Example 144, (1S,2S,5R)-N-[(4-chloro-1-hydroxy-indan-1-yl)methyl]-1-hydroxy-2-isopropyl-5-methyl-cyclohexanecarboxamide] the same measures were 4.8 nM and 1.8 nM.
For the molecule `COc1cc(CCNC(=O)[C@]2(O)C[C@H](C)CC[C@H]2C(C)C)ccc1O` [Example 114, (1S,2S,5R)-1-hydroxy-N-[2-(4-hydroxy-3-methoxy-phenyl)ethyl]-2-isopropyl-5-methyl-cyclohexanecarboxamide], the EC50 on human TRPM8 came to 59.8 nM; on pig TRPM8, 28.2 nM.
Taken in the same sequence, the figures for `CC(C)[C@@H]1CC[C@@H](C)C[C@@]1(O)C(=O)NCC(=O)c1c[nH]c2ccccc12` [Example 150, (1S,2S,5R)-1-hydroxy-N-[2-(1H-indol-3-yl)-2-oxo-ethyl]-2-isopropyl-5-methyl-cyclohexanecarboxamide] were 4 nM and 4 nM.
